# Assay results published in publication PMC8071435, “Amorphous Solid Dispersion Tablets Overcome Acalabrutinib pH Effect in Dogs” (Pharmaceutics, 2021).
# Read-outs that look alike come from different tables or passages of the source. Marks after values point to notes of the source that are not given here.
# Assays:
# [1] = Chemical stability: total impurities (total related substances) by RP-HPLC after storage; assay type: physicochemical; conditions: 40 °C/75% RH/open, perforated seal
# Protocol: The ASD was stored at 40 °C/75% relative humidity (RH) to assess physical and chemical stability under accelerated storage conditions. Initial ASD samples and aged ASDs were analyzed for crystallinity using PXRD, thermal properties using mDSC, changes in morphology or presence of surface crystals using SEM, and chemical degradation by reverse-phase high-performance liquid chromatography (RP-HPLC). The ASD and ASD tablets were stored at ambient and refrigerated conditions to assess the chemical stability at nonaccelerated conditions. Initial and aged ASD samples were analyzed for total related substances using RP-HPLC. See Appendix A.3 for method details.
# ASD and ASD tablet samples were analyzed for total related substances using RP-HPLC using a Waters XBridge C8 (150 × 3 mm, 3.5 µm pores) column (Waters Corporation, Milford, MO, USA) at a temperature of 40 °C. Mobile phase was pumped into the column at a flow rate of 0.7 mL/min using a gradient method. 10 mM ammonium acetate was used as mobile phase A and methanol was used as mobile phase B supplied according to the following sequence: 0 min: 20% B, 30 min: 70% B, 40 min: 70% B, 41 min: 20% B, […]. Samples were diluted with 8/2 (v/v) methanol/water and injection volume was 5 µL. The sample tray was held at uncontrolled room temperature. Analysis wavelength was 230 nm and 4 nm bandwidth.
# The ASD was stored at 40 °C/75% relative humidity (RH) to assess physical and chemical stability when stored under accelerated conditions. Approximately 100 mg of ASD was placed in a single 4 mL glass vial, with enough glass vials prepared for each storage condition, timepoint and replicate. […] Initial ASD samples and aged ASDs were analyzed for crystallinity using SEM and PXRD, thermal properties using mDSC (in triplicate) and total related substances using RP-HPLC (duplicate analysis).
# Additional ASD samples were stored at ambient and refrigerated conditions to assess the chemical stability upon storage at nonaccelerated conditions. […] Initial and aged ASD samples were analyzed for total related substances using RP-HPLC (duplicate analysis). […]
# [2] = parameters: method as in PMID 31306750; conditions: cited from earlier work
# CYP3A4 = tested on: CYP3A4; parameters: method as in PMID 31306750; conditions: humans; cited from earlier work
# [3] = parameters: method as in PMID 31306750; conditions: cited from earlier work; remark: listed apart in the source
# [4] = parameters: method as in PMID 31306750; conditions: humans; cited from earlier work
# [5] = parameters: method as in PMID 31306750; conditions: cited from earlier work; remark: listed apart in the source
smiles,measurement,setting,value
CC#CC(=O)N1CCC[C@H]1c1nc(-c2ccc(C(=O)Nc3ccccn3)cc2)c2c(N)nccn12 [acalabrutinib],Total impurities after 4 wk,[1]; 4 wk,0.70 ± 0.04 area%
same,Total impurities after 12 wk,[1]; 12 wk,0.94 ± 0.05 area%
same,"Total impurities, initial",[1]; initial (different ASD batch),0.59 ± 0.00 area%
same,log P,[2],2.0 ^a
same,Fraction metabolized by CYP3A4 in the gut,CYP3A4,approximately 50%
same,Crystalline intrinsic solubility,[3],48 ^a µg/mL
same,Fraction metabolized by first-pass liver extraction,[4],50%
same,pKas in physiological range,[5]; higher basic pKa,5.8
same,pKas in physiological range,[5]; lower basic pKa,3.5
